The values that follow come from US9278914B2, “SARMs and method of use thereof” (UNIVERSITY OF TENNESSEE RESEARCH FOUNDATION, priority 2004, dated 2016).

What all share (type): in vivo, rat
Test [1] deals with castrated male Sprague-Dawley rats. The test is described as follows: Anabolic and androgenic activity of SARM panel in castrated male rats, sc 1 mg/d for 14 d. The note with it: 1 mg/d sc 14 d. As to the method: The in vivo pharmacological activity of each synthetic AR ligand (listed in Table 4, below) was examined in five male Sprague-Dawley rats weighing approximately 200 g. Animals were castrated via a scrotal incision under anesthesia 24 h before drug treatments and received daily sc injections of the compound of interest at a dose rate of 1 mg/d for 14 d. All compounds of interest were freshly dissolved in vehicle containing dimethylsulfoxide (5%, vol/vol) in polyethylene glycol 300 before dose administration. An additional two groups of animals with or without castration received vehicle only and served as castrated or intact control groups, respectively. Animals were killed at the end of the treatment. Plasma samples were collected and stored at −80° C. for future use. The ventral prostate, seminal vesicles, and levator ani muscle were removed, cleared of extraneous tissue, and weighed. All organ weights were normalized to body weight and compared. The weights of prostate and seminal vesicles were used to evaluate androgenic activity, whereas the levator ani muscle weight was used as a measure of anabolic activity. […] The results are graphically depicted in FIGS. 3 and 4.

Test [2] relates to intact male Sprague-Dawley rats. The test is described as follows: Anabolic and androgenic activity in intact male rats, daily oral gavage. The protocol:
The test article for this study was weighed and dissolved in 10% DMSO (Fisher) diluted with PEG 300 (Acros Organics, N.J.) for preparation of the appropriate dosage concentrations. The animals were housed in groups of 2 to 3 animals per cage. Animals were randomly assigned to one of seven groups consisting of 4 to 5 animals per group. Control groups (intact and ORX) were administered vehicle daily. […] Where appropriate, animals were castrated on day one of the study. Treatment with compound of formula S-II began nine days post ORX and was administered daily via oral gavage for fourteen days.
(§1) The animals were sacrificed under anesthesia (ketamine/xyalzine, 87:13 mg/kg) and body weights were recorded. In addition, ventral prostate, seminal vesicles, and levator ani muscle were removed, individually weighed, normalized to body weight, and expressed as a percentage of intact control. Student's T-test was used to compare individual dose groups to the intact control group. Significance was defined a priori as a P-value<0.05. Ventral prostate and seminal vesicle weights were evaluated as a measure of androgenic activity, whereas levator ani muscle weight was evaluated as a measure of anabolic activity. Blood was collected from the abdominal aorta, centrifuged, and sera were frozen at −80° C. prior to determination of serum hormone levels. Serum luteinizing hormone (LH) and follicle stimulating hormone (FSH) concentrations were determined.
(§2) The test article for this study was weighed and dissolved in 10% DMSO (Fisher) diluted with PEG 300 (Acros Organics, N.J.) for preparation of the appropriate dosage concentrations. The animals were housed in groups of 2 to 3 animals per cage. Animals were randomly assigned to one of seven groups consisting of 4 to 5 animals per group. Control groups (intact and ORX) were administered vehicle daily. Compound of formula S-XXIII was administered via oral gavage at doses of 0.01, 0.03, 0.1, 0.3, 0.75, and 1 mg/day to both intact and ORX groups. Where appropriate, animals were castrated on day one of the study. Treatment with compound of formula S-XXIII began nine days post ORX and was administered daily via oral gavage for fourteen days.
as §2, with “S-XXIV” for “S-XXIII”, “study.” for “study. Treatment with compound of formula S-XXIII began nine days post ORX and was administered daily via oral gavage for fourteen days.”

Test [3] relates to castrated (ORX) male Sprague-Dawley rats. The test is described as follows: Anabolic and androgenic activity in castrated (ORX) male rats, daily oral gavage for fourteen days. The note with it: ORX rats. As to the method: Male Sprague-Dawley rats weighing approximately 200 g were purchased from Harlan Bioproducts for Science (Indianapolis, Ind.).
The test article for this study was weighed and dissolved in 10% DMSO (Fisher) diluted with PEG 300 (Acros Organics, N.J.) for preparation of the appropriate dosage concentrations. […] Animals were randomly assigned to one of seven groups consisting of 4 to 5 animals per group. Control groups (intact and ORX) were administered vehicle daily. […] Where appropriate, animals were castrated on day one of the study.
as §1, with “In” for “The animals were sacrificed under anesthesia (ketamine/xyalzine, 87:13 mg/kg) and body weights were recorded. In”
as §2, with “The animals were housed in groups of 2 to 3 animals per cage.” left out
Male Sprague-Dawley rats weighing approximately 200 g were purchased from Harlan Bioproducts for Science (Indianapolis, Ind.). […] Regenerative effects of the compound of formula S-XXIV in chronically (9 days) ORX rats was similarly evaluated.
as §2, with “The animals were housed in groups of 2 to 3 animals per cage.” left out, “S-XXIV” for “S-XXIII”
Male Sprague-Dawley rats weighing approximately 200 g were purchased from Harlan Bioproducts for Science (Indianapolis, Ind.). […] Anabolic and androgenic activity of compound of formula S-XXV in intact animals was evaluated, and the dose response in acutely orchidectomized (ORX) animals was evaluated as well.
The compound was weighed and dissolved in 10% DMSO (Fisher) diluted with PEG 300 (Acros Organics, N.J.) for preparation of the appropriate dosage concentrations.

Setting [4] is: nonlinear regression, sigmoid Emax model.

Regarding `C[C@](O)(COc1ccc(F)c(F)c1)C(=O)Nc1ccc([N+](=O)[O-])c(C(F)(F)F)c1` [C-3], in test [1], the “Levator ani weight versus intact control” value is on record as “same as or in excess of intact control”.
As for `C[C@](O)(COc1ccc(F)cc1)C(=O)Nc1ccc([N+](=O)[O-])c(C(F)(F)F)c1` [S-1], in test [1], the Levator ani agonism is on record as > 75 % of intact control and the Ventral prostate weight is < 25 % of intact control.
`C[C@](O)(COc1ccc(F)c(Cl)c1)C(=O)Nc1ccc([N+](=O)[O-])c(C(F)(F)F)c1` [C-4]: in test [1], the Levator ani agonism is > 75 % of intact control and the Ventral prostate weight is recorded as < 25 % of intact control.
As to `C[C@](O)(COc1ccc([N+](=O)[O-])c(F)c1)C(=O)Nc1ccc([N+](=O)[O-])c(C(F)(F)F)c1` [C-11], in test [1], the “Levator ani weight versus intact control” value is “same as or in excess of intact control”.
As to `C[C@](O)(COc1ccc(Cl)c(Cl)c1)C(=O)Nc1ccc([N+](=O)[O-])c(C(F)(F)F)c1` [C-10], the “Levator ani weight versus intact control” value in test [1] was “same as or in excess of intact control”.
On to `C[C@](O)(COc1ccc(F)cc1F)C(=O)Nc1ccc([N+](=O)[O-])c(C(F)(F)F)c1` [C-1], for which, in test [1], the Levator ani agonism is > 75 % of intact control and the Ventral prostate weight is < 25 % of intact control.
As for `C[C@](O)(COc1cc(F)c(F)cc1F)C(=O)Nc1ccc([N+](=O)[O-])c(C(F)(F)F)c1` [C-18], in test [1], the “Levator ani weight versus intact control” value is on record as “same as or in excess of intact control”.
Consider `C[C@](O)(COc1c(F)c(F)c(F)c(F)c1F)C(=O)Nc1ccc([N+](=O)[O-])c(C(F)(F)F)c1` [C-23], for which, in test [1], the Levator ani agonism is recorded as > 75 % of intact control and the Ventral prostate weight is recorded as < 25 % of intact control.
As to `C[C@](O)(COc1ccc(Cl)c(F)c1)C(=O)Nc1ccc([N+](=O)[O-])c(C(F)(F)F)c1` [C-6], the “Levator ani weight versus intact control” value in test [1] was “same as or in excess of intact control”.
Consider `C[C@](O)(COc1ccc(Cl)cc1F)C(=O)Nc1ccc([N+](=O)[O-])c(C(F)(F)F)c1` [C-8], for which the “Levator ani weight versus intact control” value in test [1] is “same as or in excess of intact control”.
Regarding `C[C@](O)(COc1cc(Cl)c(Cl)cc1Cl)C(=O)Nc1ccc([N+](=O)[O-])c(C(F)(F)F)c1` [C-22], in test [1], the Levator ani agonism was > 75 % of intact control and the Ventral prostate weight is on record as < 25 % of intact control.
Turning to `C[C@](O)(COc1ccc(C#N)c(F)c1)C(=O)Nc1ccc(C#N)c(C(F)(F)F)c1` [S-XXIII], the “Levator ani muscle weight” value in test [2] (0.01 mg/day oral) is recorded as 116%±7%; in test [2] (0.03 mg/day oral), 134%±8%; in test [2] (0.1 mg/day oral) it was 134%±21%; in test [2] (0.3 mg/day oral), 134%±11%; in test [2] (0.75 mg/day oral) it was 142%±10%; in test [2] (1 mg/day oral) it was 147%±10%. For the same compound, the “Levator ani muscle weight” value was 71%±4% in test [3] (0.01 mg/day oral); 101%±15% in test [3] (0.03 mg/day oral); 125%±20% in test [3] (0.1 mg/day oral); 126%±14% in test [3] (0.3 mg/day oral); 151±9 % of intact controls in test [3] (0.75 mg/day oral); 143±17 % of intact controls in test [3] (1 mg/day oral). Further, the Prostate weight in test [2] (0.01 mg/day oral) was 98%±21%; in test [2] (0.03 mg/day oral), 99%±8%; in test [2] (0.1 mg/day oral), 85%±18%; in test [2] (0.3 mg/day oral) it was 98%±22%; in test [2] (0.75 mg/day oral), 126%±17%; in test [2] (1 mg/day oral) it was 126%±17%. In addition, the Prostate weight is 24%±4% in test [3] (0.01 mg/day oral); 37%±9% in test [3] (0.03 mg/day oral); 50%±11% in test [3] (0.1 mg/day oral); 88%±16% in test [3] (0.3 mg/day oral); 132%±16% in test [3] (0.75 mg/day oral); 118±12 % of intact controls in test [3] (1 mg/day oral). The Seminal vesicle weight in test [2] (0.01 mg/day oral) was 115%±12%; in test [2] (0.03 mg/day oral), 109%±17%; in test [2] (0.1 mg/day oral), 106%±13%; in test [2] (0.3 mg/day oral) it was 121%±11%; in test [2] (0.75 mg/day oral), 157%±5%; in test [2] (1 mg/day oral) it was 136%±3%. The Seminal vesicle weight in test [3] (0.01 mg/day oral) is on record as 15%±2%; in test [3] (0.03 mg/day oral), 25%±9%; in test [3] (0.1 mg/day oral), 67%±20%; in test [3] (0.3 mg/day oral) it was 113%±6%; in test [3] (0.75 mg/day oral) it was 155%±16%; in test [3] (1 mg/day oral), 160%±7%. Moreover, the “Dose able to fully restore/maintain levator ani muscle weight” value in test [3] was found to be 0.03 mg/day. The ED50 levator ani in test [3] worked out at 0.03 ± 0.01 mg/day. For the same compound, the ED50 prostate in test [3] turned out to be 0.21 ± 0.04 mg/day. Besides, the ED50 seminal vesicles in test [3] worked out at 0.2 ± 0.04 mg/day. Moreover, the Emax levator ani in test [3] (setting [4]) is recorded as 147%±10%. For the same compound, the Emax prostate in test [3] (setting [4]) is reported as 147%±10%. In addition, in test [3] (setting [4]), the Emax seminal vesicles is 188%±135%.
